Data published in publication PMC9005681, “Use of AD Informer Set compounds to explore validity of novel targets in Alzheimer's disease pathology” (Alzheimer's & Dementia : Translational Research & Clinical …, 2022).
Where a name gives a salt, the structure may show the parent alone. Read-outs that look alike come from different tables or passages of the source.

Legend:
[1] = test system: cellular system; parameters: method as in column References for potency and dosing (the 5th table c13); conditions: published data; References for potency and dosing; cited from earlier work
[2] = test system: HMC3 (human microglia) immortalized cell line; conditions: 10 μM single concentration, normalized to control (DMSO) treated cells; in % (unit assumed); cited from earlier work
[3] = test system: BV2 (mouse microglia) immortalized cell line; conditions: 10 μM single concentration, normalized to control (DMSO) treated cells; in % (unit assumed); cited from earlier work
[4] = test system: HMC3 (human microglia) immortalized cell line; assay: pHrodo-myelin phagocytosis assay, HMC3; assay type: cell-based; conditions: 10-point dose-response up to 20 or 40 μM, 24 or 48 h
Protocol: (§1) Microglial viability and phagocytosis studies: The pHrodo-myelin phagocytosis/cell viability assay, modified based on a published method, was run with BV2 (mouse microglia) and HMC3 (human microglia) immortalized cell lines in the Chu lab at IUSM. The 384-well plate high content analysis assay with BV2 and HMC3 microglial cell lines is used to quantify phagocytosis and cell viability simultaneously. High content imaging is performed with the ArrayScan automatic imaging system and imaging analysis done with the system’s software. Cells are treated with compounds for total 48 hours including final 20 hours seeded with pHrodo-myelin (labeled phagocytosis ligand, purified from mouse brain), then cells are stained with Hoechst- […]
(§2) Three measurements are extracted from the assay: 1) phagocytosis signal by mean total phagocytosis spot intensity per cell, 2) total cell counts per well as the main measurement of cell viability, and 3) mean average nuclear intensity per cell as profiling of cell health since apoptotic cells showing nuclear intensity increase (early apoptosis) and decrease (later apoptosis), respectively. […]
(§3) dose-response follow-up in duplicate or triplicate. These compounds were initially dosed up to […]

[5] = test system: BV2 (mouse microglia) immortalized cell line; assay: pHrodo-myelin phagocytosis assay, BV2; assay type: cell-based; conditions: 10-point dose-response up to 20 or 40 μM, 24 or 48 h
Protocol: as §1, §2, §3

[6] = test system: HMC3 (human microglia) immortalized cell line; assay: Microglial cell viability (cell count, nuclear measures), HMC3; assay type: cell-based; conditions: 10-point dose-response up to 20 or 40 μM, 24 or 48 h
Protocol: Microglial viability and phagocytosis studies: The pHrodo-myelin phagocytosis/cell viability assay, modified based on a published method, was run with BV2 (mouse microglia) and HMC3 (human microglia) immortalized cell lines in the Chu lab at IUSM. The 384-well plate high content analysis assay with BV2 and HMC3 microglial cell lines is used to quantify phagocytosis and cell viability simultaneously. High content imaging is performed with the ArrayScan automatic imaging system and imaging analysis done with the system’s software. Cells are treated with compounds for total 48 hours including final 20 hours seeded with pHrodo-myelin (labeled phagocytosis ligand, purified from mouse brain), then cells are stained with Hoechst-33342 one hour before the imaging. Three measurements are extracted from the assay: 1) phagocytosis signal by mean total phagocytosis spot intensity per cell, 2) total cell counts per well as the main measurement of cell viability, and 3) mean average nuclear intensity per cell as profiling of cell health since apoptotic cells showing nuclear intensity increase (early apoptosis) and decrease (later apoptosis), respectively.
Based on the single-concentration data, several compounds were selected for 10-point dose-response follow-up in duplicate or triplicate. These compounds were initially dosed up to 20 μM for 24h. […]

[7] = test system: BV2 (mouse microglia) immortalized cell line; assay: Microglial cell viability (cell count, nuclear measures), BV2; assay type: cell-based; conditions: 10-point dose-response up to 20 or 40 μM, 24 or 48 h
Protocol: as §1, §2, §3

[8] = test system: HMC3 (human microglia) immortalized cell line; conditions: cited from earlier work; for Phagocytosis HMC3: 10 μM single concentration, normalized to control (DMSO) treated cells
[9] = test system: BV2 (mouse microglia) immortalized cell line; conditions: cited from earlier work; for Phagocytosis BV2: 10 μM single concentration, normalized to control (DMSO) treated cells
[10] = aqueous, neutral pH (7.4); cited from earlier work
[11] = test system: CYP3A43; conditions: published affinity; ref PubMed 10801218, 1526623; cited from earlier work
[12] = test system: ERBB3 (HER3); parameters: method as in PubMed 20145185; conditions: published affinity; ref PubMed 20145185; cited from earlier work
[13] = test system: ALK; parameters: method as in PubMed 24819116, 25733882; conditions: published affinity; ref PubMed 24819116, 25733882; cited from earlier work
[14] = test system: Aβ40 and Aβ42; parameters: method as in PMID 25331948; conditions: 2 mg/kg; cited from earlier work
[15] = test system: tau phosphorylation; parameters: method as in PMID 25331948; conditions: only observed at 10 μM; cited from earlier work
[16] = test system: tau phosphorylation; parameters: method as in PMID 32063836, PMID 28502066; conditions: cited from earlier work
[17] = test system: GPCRs; conditions: profiled against many of the same GPCRs; cited from earlier work
[18] = 10 μM, murine immortalized microglial cells
[19] = 10 μM, human immortalized microglial cells

| SMILES | Reported as cell active (<10 μM) [1] | Cell number HMC3 [2] | DNA intensity HMC3 [2] | DNA intensity BV2 [3] | Phagocytosis in dose-response follow-up, HMC3 [4] | Phagocytosis in dose-response follow-up, BV2 [5] | Toxicity in dose-response follow-up, BV2 [7] | Phagocytosis HMC3 [8] | Phagocytosis BV2 [9] | Nuclear size HMC3 [2] | Cell number BV2 [3] | Nuclear size BV2 [3] | Kinetic solubility [10] | other results |
| --- | --- | --- | --- | --- | --- | --- | --- | --- | --- | --- | --- | --- | --- | --- |
| COc1cc2c(cc1OC)C(=O)C(CC1CCN(Cc3ccccc3)CC1)C2 (stereo not drawn) [UNC10240506B, Donepezil Hydrochloride (E2020)] | Y (Published data supports that the compound is active in a cellular system when dosed at 10 μM (Y/N)) | 130.2 | 98.0 | 104.5 |  |  |  |  |  |  |  |  |  |  |
| CC(=O)N1CCN(c2ccc(OCC3COC(Cn4ccnc4)(c4ccc(Cl)cc4Cl)O3)cc2)CC1 (stereo not drawn) [UNC10100724A, Ketoconazole] | Y (Published data supports that the compound is active in a cellular system when dosed at 10 μM (Y/N)) | 125.5 | 100.1 | 104.7 | stimulation of phagocytosis was observed | stimulation of phagocytosis was observed | without notable toxicity | 144.4 | 280.0 | 96.3 | 129.7 | 103.8 | 119.6 µM | Toxicity in dose-response follow-up, HMC3 [6]: without notable toxicity; Stimulation of mouse microglial phagocytosis at 10 μM (>150% control) [9, 18]: Y (The compound was found to stimulate phagocytosis (response threshold: >150% control) when murine immortalized microglial cells were dosed at 10 μM (Y: yes)); Reported on-target biochemical potency, CYP3A43 [11]: 64 µM |
| CNC(=O)CN1CCC(Oc2cc3c(Nc4cccc(Cl)c4F)ncnc3cc2OC)CC1 [UNC10302865A, Sapitinib (AZD8931)] | Y (Published data supports that the compound is active in a cellular system when dosed at 10 μM (Y/N)) | 132.1 | 90.8 | 101.0 | stimulation of microglial phagocytosis | inhibition of phagocytosis | Some toxicity was observed at the highest concentrations | 152.7 | 68.8 | 105.8 | 102.4 | 110.1 | 114.6 µM | Stimulation of human microglial phagocytosis at 10 μM (>150% control) [8, 19]: Y (The compound was found to stimulate phagocytosis (response threshold: >150% control) when human immortalized microglial cells were dosed at 10 μM (Y: yes)); Inhibition of mouse microglial phagocytosis at 10 μM (<70% control) [9, 18]: Y (The compound was found to inhibit phagocytosis (response threshold: <70% control) when murine immortalized microglial cells were dosed at 10 μM (Y: yes)); Reported on-target biochemical potency, ERBB3 (HER3) [12]: 4 nM |
| C[C@H]1Oc2cc(cnc2N)-c2c(nn(C)c2C#N)CN(C)C(=O)c2ccc(F)cc21 [UNC10244898A, Lorlatinib] | Y (Published data supports that the compound is active in a cellular system when dosed at 10 μM (Y/N)) | 127.2 | 89.2 | 110.1 | inhibition/stimulation of phagocytosis occurred at a much lower concentration | inhibition/stimulation of phagocytosis occurred at a much lower concentration | Some toxicity was observed | 37.8 | 200.3 | 110.3 | 117.2 | 102.7 | 172 µM | Toxicity in dose-response follow-up, HMC3 [6]: Some toxicity was observed; Inhibition of human microglial phagocytosis at 10 μM (<70% control) [8, 19]: Y (The compound was found to inhibit phagocytosis (response threshold: <70% control) when human immortalized microglial cells were dosed at 10 μM (Y: yes)); Stimulation of mouse microglial phagocytosis at 10 μM (>150% control) [9, 18]: Y (The compound was found to stimulate phagocytosis (response threshold: >150% control) when murine immortalized microglial cells were dosed at 10 μM (Y: yes)); Reported on-target biochemical potency, ALK [13]: <0.07 nM |
| COc1ccc(-c2cc3nccn3c(Nc3ncccc3C(N)=O)n2)cc1OC [BAY61‐3606] |  |  |  |  |  |  |  |  |  |  |  |  |  | Detectable levels of Aβ40 and Aβ42 [14]: significant reduction; Tau phosphorylation [15]: indirectly reduces tau phosphorylation |
| O=c1c2ccccc2[se]n1-c1ccccc1 [Ebselen] |  |  |  |  |  |  |  |  |  |  |  |  |  | Tau phosphorylation [16]: decrease tau phosphorylation |
| COc1cc(-c2cc3ncccc3c(O[C@H](C)[C@H]3CNC(=O)C3)n2)cc(OC)c1OC [BI1002494] |  |  |  |  |  |  |  |  |  |  |  |  |  | GPCR affinity (published profiling) [17]: lacked this activity |
